Test results: US20260337661A1, “BIOMARKERS OF THE INTEGRATED STRESS RESPONSE AND USES THEREOF” (Calico Life Sciences LLC, priority 2023, published 2026)

Tests used:
[1] = test system: ISR signature genes; assay: Gene expression of the ISR signature in cerebellum and spinal cord of VWM mice treated with 2BAct; format: in vivo, mouse; details: 30 mg/kg in food pellets, four months
Description: (§1) FIGS. 2A and 2B depict gene expression of the ISR signature and GDF15 in the cerebellum (FIG. 2A) and spinal cord (FIG. 2B) of VWM mice and WT mice following 4 months of treatment with 30 mg/kg 2BAct in food pellets or control chow. Samples were also collected after a drug washout period of 2 months.
(§2) In this example, a VWMD mouse model harboring a R191H mutation in eIF2B was used.
(§3) VWM mice and WT mice were treated with 2BAct at 30 mg/kg for four months in food pellets. Subsequently, expressions of ISR signature genes and GDF15 in the cerebellum were determined.

[2] = test system: GDF15; assay: GDF15 mRNA levels in the CNS (cerebellum, spinal cord) of VWM mice treated with 2BAct; format: in vivo, mouse; details: cerebellum and spinal cord, FIGS. 2C and 2D
Description: as §1
FIG. 2C and FIG. 2D show GDF15 mRNA levels determined in cerebellum (FIG. 2C) and spinal cord (FIG. 2D) in WT mice, VWM mice, and VWM mice treated with 2BAct for 4 months and 2 months after cessation of 2BAct treatment. *p<0.05, **p<0.01, ***p<0.001 by Mann Whitney.
as §2, §3

[3] = test system: GDF15; assay: GDF15 protein levels in CSF and plasma of VWM mice treated with 2BAct; format: in vivo, mouse
Description: FIG. 2E and FIG. 2F show GDF15 protein levels determined in CSF (FIG. 2E) and plasma (FIG. 2F) in WT mice, VWM mice, and VWM mice treated with 2BAct for 4 months and 2 months after cessation of 2BAct treatment. *p<0.05, **p<0.01, ***p<0.001 by Mann Whitney.
as §2, §3

[4] = test system: GDF15; assay: GDF15 protein in astrocyte-derived exosomes (ADE) and neuron-derived exosomes (NDE) in plasma of VWM mice (immunoassay); format: in vivo, mouse
Description: GDF15 protein was quantified in astrocyte-derived exosomes (ADEs) or neuron-derived exosomes (NDEs) in plasma using immunoassay. ADEs and NDEs were captured with anti-GLAST antibody and anti-SNAP25 antibody, respectively. GLAST is an astrocyte specific cell-surface protein; SNAP25 is highly expressed on neuronal membrane. The detection of GDF15 was performed by incubation with a specific anti-GDF15 antibody followed by an anti-mouse IgG conjugated to Horseradish peroxidase.

[5] = test system: ISR signature genes, including Atf5, Eif4ebp1 and Trib3; details: previously shown; cited from earlier work
[6] = previously shown; cited from earlier work

O=C(COc1ccc(Cl)c(F)c1)NC12CC(NC(=O)c3cnc(C(F)F)cn3)(C1)C2 [Compound 2BAct]
ISR gene expression signature in the cerebellum ([1]; FIG. 2A): inhibited the ISR gene expression signature
ISR gene expression signature in the spinal cord ([1]; FIG. 2B): inhibited the ISR gene expression signature
GDF15 mRNA levels in the CNS following treatment ([2]; 30 mg/kg in food pellets, four months): markedly reduced
GDF15 mRNA levels in the CNS after cessation of treatment ([2]; 2 months after cessation of 4-month treatment): rebounded to pre-treatment levels
CSF GDF15 levels after treatment ([3]; 30 mg/kg in food pellets, 4-month treatment, FIG. 2E): suppressed
plasma GDF15 ([3]; 30 mg/kg in food pellets, four months, FIG. 2F): did not affect plasma GDF15
CSF GDF15 levels following drug washout ([3]; 2 months of drug washout after 4-month treatment, FIG. 2E): returned to pre-dose baseline levels
GDF15 expression in plasma ADE ([4]; 30 mg/kg for 10 days, FIG. 7A): suppressed GDF15 expression in plasma ADE and NDE to the level present in WT mice
GDF15 expression in plasma NDE ([4]; 30 mg/kg for 10 days, FIG. 7B): suppressed GDF15 expression in plasma ADE and NDE to the level present in WT mice
downmodulation of GDF15 expression on VWM ADE ([4]; astrocyte derived exosomes, FIG. 7A): 2.7 fold
downmodulation of GDF15 expression on VWM NDE ([4]; neuron derived exosomes, FIG. 7B): 1.7 fold
ISR signature genes, including Atf5, Eif4ebp1 and Trib3, in the brain [5]: suppress the ISR signature genes
motor deficit [6]: corrected motor deficit
